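Results reflect a 48-hour exposure of cells in 96-well plates to compound at five concentrations. GI50 is the concentration that inhibits growth by half. TGI denotes the concentration required for complete inhibition of growth.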
System: NCI/ADR-RES ovarian
Assay: growth of human tumour cells (NCI), 48 h

Compound `Cc1sc2nc(NCCc3c[nH]c4ccc(Cl)cc34)[nH]c(=O)c2c1C` has a GI50 of 3.07 µM.

In the case of `Cc1sc2nc(NCCc3c[nH]c4ccc(Cl)cc34)[nH]c(=O)c2c1C`, the TGI is reported as 15.6 µM.

System: SK-MEL-2 melanoma
Assay: growth of human tumour cells (NCI), 48 h

Compared with `Fc1ccc(Nc2cc(-n3nnc4ccccc43)nc3ccccc23)cc1`, `Cc1sc2nc(NCCc3c[nH]c4ccc(Cl)cc34)[nH]c(=O)c2c1C` is 38-fold lower in GI50: 98.8 µM for the first, 2.62 µM for the second.

For `Nc1nc(Br)nc2c1ncn2C1CC(O)C(CO)O1` (stereo not drawn), the GI50 was greater than 100 µM.

`Fc1ccc(Nc2cc(-n3nnc4ccccc43)nc3ccccc23)cc1` and `CC(C)CC1[C@@H](OCc2ccccc2)COS(=O)N1Cc1ccccc1` (stereo partly drawn) cannot be ordered by TGI: greater than 100 µM for the first, greater than 100 µM for the second.

Going from `Nc1nc(Br)nc2c1ncn2C1CC(O)C(CO)O1` (stereo not drawn) to `Cc1sc2nc(NCCc3c[nH]c4ccc(Cl)cc34)[nH]c(=O)c2c1C`, the TGI falls from greater than 100 µM to 9.29 µM.

System: MALME-3M melanoma
Assay: growth of human tumour cells (NCI), 48 h

First: Fc1ccc(Nc2cc(-n3nnc4ccccc43)nc3ccccc23)cc1
Second: Cc1sc2nc(NCCc3c[nH]c4ccc(Cl)cc34)[nH]c(=O)c2c1C
The GI50 of the first is 9.7-fold higher: 23.1 µM for the first, 2.38 µM for the second.

`Nc1nc(Br)nc2c1ncn2C1CC(O)C(CO)O1` (stereo not drawn) showed a GI50 greater than 100 µM.

`Fc1ccc(Nc2cc(-n3nnc4ccccc43)nc3ccccc23)cc1` and `CC(C)CC1[C@@H](OCc2ccccc2)COS(=O)N1Cc1ccccc1` (stereo partly drawn) cannot be ordered by TGI: greater than 70.6 µM for the first, 72.9 µM for the second.

Compared with `Nc1nc(Br)nc2c1ncn2C1CC(O)C(CO)O1` (stereo not drawn), `Cc1sc2nc(NCCc3c[nH]c4ccc(Cl)cc34)[nH]c(=O)c2c1C` is lower in TGI: greater than 100 µM for the first, 7.45 µM for the second.

System: UO-31 renal
Assay: growth of human tumour cells (NCI), 48 h

Compared with `Fc1ccc(Nc2cc(-n3nnc4ccccc43)nc3ccccc23)cc1`, `Cc1sc2nc(NCCc3c[nH]c4ccc(Cl)cc34)[nH]c(=O)c2c1C` is lower in GI50: greater than 55.9 µM for the first, 1.22 µM for the second.

In the case of `Nc1nc(Br)nc2c1ncn2C1CC(O)C(CO)O1` (stereo not drawn), the GI50 is reported as 1.3 µM.

`Fc1ccc(Nc2cc(-n3nnc4ccccc43)nc3ccccc23)cc1` and `CC(C)CC1[C@@H](OCc2ccccc2)COS(=O)N1Cc1ccccc1` (stereo partly drawn) cannot be ordered by TGI: greater than 100 µM for the first, greater than 100 µM for the second.

First: Nc1nc(Br)nc2c1ncn2C1CC(O)C(CO)O1 (stereo not drawn)
Second: Cc1sc2nc(NCCc3c[nH]c4ccc(Cl)cc34)[nH]c(=O)c2c1C
The TGI of the first is higher: greater than 100 µM for the first, 2.77 µM for the second.

System: DU-145 prostate
Assay: growth of human tumour cells (NCI), 48 h

Compared with `Fc1ccc(Nc2cc(-n3nnc4ccccc43)nc3ccccc23)cc1`, `Cc1sc2nc(NCCc3c[nH]c4ccc(Cl)cc34)[nH]c(=O)c2c1C` is lower in GI50: greater than 56.2 µM for the first, 3.59 µM for the second.

Work on `Nc1nc(Br)nc2c1ncn2C1CC(O)C(CO)O1` (stereo not drawn) yielded a GI50 of 44.3 µM.

`Fc1ccc(Nc2cc(-n3nnc4ccccc43)nc3ccccc23)cc1` and `CC(C)CC1[C@@H](OCc2ccccc2)COS(=O)N1Cc1ccccc1` (stereo partly drawn) cannot be ordered by TGI: greater than 100 µM for the first, greater than 100 µM for the second.

First: Nc1nc(Br)nc2c1ncn2C1CC(O)C(CO)O1 (stereo not drawn)
Second: Cc1sc2nc(NCCc3c[nH]c4ccc(Cl)cc34)[nH]c(=O)c2c1C
The TGI of the first is higher: greater than 100 µM for the first, 13 µM for the second.

System: HOP-62 NSCLC
Assay: growth of human tumour cells (NCI), 48 h

In order of falling GI50:
1. Fc1ccc(Nc2cc(-n3nnc4ccccc43)nc3ccccc23)cc1  13.8 µM
2. Nc1nc(Br)nc2c1ncn2C1CC(O)C(CO)O1 (stereo not drawn)  4.68 µM
3. Cc1sc2nc(NCCc3c[nH]c4ccc(Cl)cc34)[nH]c(=O)c2c1C  2.52 µM

`Fc1ccc(Nc2cc(-n3nnc4ccccc43)nc3ccccc23)cc1` and `CC(C)CC1[C@@H](OCc2ccccc2)COS(=O)N1Cc1ccccc1` (stereo partly drawn) cannot be ordered by TGI: greater than 34 µM for the first, greater than 100 µM for the second.

Going from `Nc1nc(Br)nc2c1ncn2C1CC(O)C(CO)O1` (stereo not drawn) to `Cc1sc2nc(NCCc3c[nH]c4ccc(Cl)cc34)[nH]c(=O)c2c1C`, the TGI falls from greater than 100 µM to 10.4 µM.

System: K-562 leukemia
Assay: growth of human tumour cells (NCI), 48 h

Going from `Fc1ccc(Nc2cc(-n3nnc4ccccc43)nc3ccccc23)cc1` to `Cc1sc2nc(NCCc3c[nH]c4ccc(Cl)cc34)[nH]c(=O)c2c1C`, the GI50 falls from greater than 100 µM to 3.03 µM.

In the case of `Nc1nc(Br)nc2c1ncn2C1CC(O)C(CO)O1` (stereo not drawn), the GI50 is reported as greater than 24 µM.

`Fc1ccc(Nc2cc(-n3nnc4ccccc43)nc3ccccc23)cc1` and `CC(C)CC1[C@@H](OCc2ccccc2)COS(=O)N1Cc1ccccc1` (stereo partly drawn) cannot be ordered by TGI: greater than 100 µM for the first, greater than 100 µM for the second.

Going from `Nc1nc(Br)nc2c1ncn2C1CC(O)C(CO)O1` (stereo not drawn) to `Cc1sc2nc(NCCc3c[nH]c4ccc(Cl)cc34)[nH]c(=O)c2c1C`, the TGI falls from greater than 100 µM to 10.7 µM.

System: SN12C renal
Assay: growth of human tumour cells (NCI), 48 h

In order of rising GI50:
1. Nc1nc(Br)nc2c1ncn2C1CC(O)C(CO)O1 (stereo not drawn)  0.744 µM
2. Cc1sc2nc(NCCc3c[nH]c4ccc(Cl)cc34)[nH]c(=O)c2c1C  2.38 µM
3. Fc1ccc(Nc2cc(-n3nnc4ccccc43)nc3ccccc23)cc1  30 µM

`Fc1ccc(Nc2cc(-n3nnc4ccccc43)nc3ccccc23)cc1` and `CC(C)CC1[C@@H](OCc2ccccc2)COS(=O)N1Cc1ccccc1` (stereo partly drawn) cannot be ordered by TGI: greater than 69.3 µM for the first, greater than 100 µM for the second.

First: Nc1nc(Br)nc2c1ncn2C1CC(O)C(CO)O1 (stereo not drawn)
Second: Cc1sc2nc(NCCc3c[nH]c4ccc(Cl)cc34)[nH]c(=O)c2c1C
The TGI of the first is higher: greater than 100 µM for the first, 6.59 µM for the second.

System: BT-549 breast
Assay: growth of human tumour cells (NCI), 48 h

Going from `Fc1ccc(Nc2cc(-n3nnc4ccccc43)nc3ccccc23)cc1` to `Cc1sc2nc(NCCc3c[nH]c4ccc(Cl)cc34)[nH]c(=O)c2c1C`, the GI50 falls from greater than 47.9 µM to 2.55 µM.

`Nc1nc(Br)nc2c1ncn2C1CC(O)C(CO)O1` (stereo not drawn) was tested, and the GI50 was 3.52 µM.

Going from `Fc1ccc(Nc2cc(-n3nnc4ccccc43)nc3ccccc23)cc1` to `Cc1sc2nc(NCCc3c[nH]c4ccc(Cl)cc34)[nH]c(=O)c2c1C`, the TGI falls from greater than 89 µM to 9.95 µM.

In the case of `Nc1nc(Br)nc2c1ncn2C1CC(O)C(CO)O1` (stereo not drawn), the TGI is reported as greater than 100 µM.

System: UACC-257 melanoma
Assay: growth of human tumour cells (NCI), 48 h

In order of rising GI50:
1. Cc1sc2nc(NCCc3c[nH]c4ccc(Cl)cc34)[nH]c(=O)c2c1C  2.14 µM
2. Nc1nc(Br)nc2c1ncn2C1CC(O)C(CO)O1 (stereo not drawn)  27.3 µM
3. Fc1ccc(Nc2cc(-n3nnc4ccccc43)nc3ccccc23)cc1  70.1 µM

`Fc1ccc(Nc2cc(-n3nnc4ccccc43)nc3ccccc23)cc1` and `CC(C)CC1[C@@H](OCc2ccccc2)COS(=O)N1Cc1ccccc1` (stereo partly drawn) cannot be ordered by TGI: greater than 100 µM for the first, greater than 100 µM for the second.

Going from `Nc1nc(Br)nc2c1ncn2C1CC(O)C(CO)O1` (stereo not drawn) to `Cc1sc2nc(NCCc3c[nH]c4ccc(Cl)cc34)[nH]c(=O)c2c1C`, the TGI falls from greater than 100 µM to 6.34 µM.

System: SF-539 CNS
Assay: growth of human tumour cells (NCI), 48 h

In order of rising GI50:
1. Cc1sc2nc(NCCc3c[nH]c4ccc(Cl)cc34)[nH]c(=O)c2c1C  3.37 µM
2. Fc1ccc(Nc2cc(-n3nnc4ccccc43)nc3ccccc23)cc1  24.6 µM
3. Nc1nc(Br)nc2c1ncn2C1CC(O)C(CO)O1 (stereo not drawn)  27.4 µM

Going from `Fc1ccc(Nc2cc(-n3nnc4ccccc43)nc3ccccc23)cc1` to `Cc1sc2nc(NCCc3c[nH]c4ccc(Cl)cc34)[nH]c(=O)c2c1C`, the TGI falls from greater than 55.6 µM to 13.4 µM.

For `Nc1nc(Br)nc2c1ncn2C1CC(O)C(CO)O1` (stereo not drawn), the TGI was greater than 100 µM.

System: HS 578T breast
Assay: growth of human tumour cells (NCI), 48 h

Compared with `Fc1ccc(Nc2cc(-n3nnc4ccccc43)nc3ccccc23)cc1`, `Cc1sc2nc(NCCc3c[nH]c4ccc(Cl)cc34)[nH]c(=O)c2c1C` is 9.8-fold lower in GI50: 18.2 µM for the first, 1.86 µM for the second.

In the case of `Nc1nc(Br)nc2c1ncn2C1CC(O)C(CO)O1` (stereo not drawn), the GI50 is reported as greater than 93.3 µM.

`Fc1ccc(Nc2cc(-n3nnc4ccccc43)nc3ccccc23)cc1` and `CC(C)CC1[C@@H](OCc2ccccc2)COS(=O)N1Cc1ccccc1` (stereo partly drawn) cannot be ordered by TGI: greater than 68.7 µM for the first, 80 µM for the second.

Compared with `Nc1nc(Br)nc2c1ncn2C1CC(O)C(CO)O1` (stereo not drawn), `Cc1sc2nc(NCCc3c[nH]c4ccc(Cl)cc34)[nH]c(=O)c2c1C` is lower in TGI: greater than 100 µM for the first, 6.25 µM for the second.

System: HCC-2998 colon
Assay: growth of human tumour cells (NCI), 48 h

Compared with `Fc1ccc(Nc2cc(-n3nnc4ccccc43)nc3ccccc23)cc1`, `Cc1sc2nc(NCCc3c[nH]c4ccc(Cl)cc34)[nH]c(=O)c2c1C` is lower in GI50: greater than 100 µM for the first, 2.39 µM for the second.

Work on `Nc1nc(Br)nc2c1ncn2C1CC(O)C(CO)O1` (stereo not drawn) yielded a GI50 of 4.55 µM.

Going from `Fc1ccc(Nc2cc(-n3nnc4ccccc43)nc3ccccc23)cc1` to `Cc1sc2nc(NCCc3c[nH]c4ccc(Cl)cc34)[nH]c(=O)c2c1C`, the TGI falls from greater than 100 µM to 5.71 µM.

`Nc1nc(Br)nc2c1ncn2C1CC(O)C(CO)O1` (stereo not drawn) showed a TGI greater than 100 µM.

System: OVCAR-8 ovarian
Assay: growth of human tumour cells (NCI), 48 h

In order of falling GI50:
1. Fc1ccc(Nc2cc(-n3nnc4ccccc43)nc3ccccc23)cc1  22.2 µM
2. Cc1sc2nc(NCCc3c[nH]c4ccc(Cl)cc34)[nH]c(=O)c2c1C  2.12 µM
3. Nc1nc(Br)nc2c1ncn2C1CC(O)C(CO)O1 (stereo not drawn)  0.18 µM

`Fc1ccc(Nc2cc(-n3nnc4ccccc43)nc3ccccc23)cc1` and `CC(C)CC1[C@@H](OCc2ccccc2)COS(=O)N1Cc1ccccc1` (stereo partly drawn) cannot be ordered by TGI: greater than 79 µM for the first, greater than 100 µM for the second.

Compared with `Nc1nc(Br)nc2c1ncn2C1CC(O)C(CO)O1` (stereo not drawn), `Cc1sc2nc(NCCc3c[nH]c4ccc(Cl)cc34)[nH]c(=O)c2c1C` is lower in TGI: greater than 100 µM for the first, 5.69 µM for the second.

System: HOP-92 NSCLC
Assay: growth of human tumour cells (NCI), 48 h

In order of rising GI50:
1. Cc1sc2nc(NCCc3c[nH]c4ccc(Cl)cc34)[nH]c(=O)c2c1C  2.06 µM
2. Nc1nc(Br)nc2c1ncn2C1CC(O)C(CO)O1 (stereo not drawn)  2.79 µM
3. Fc1ccc(Nc2cc(-n3nnc4ccccc43)nc3ccccc23)cc1  14.4 µM

Going from `Fc1ccc(Nc2cc(-n3nnc4ccccc43)nc3ccccc23)cc1` to `Cc1sc2nc(NCCc3c[nH]c4ccc(Cl)cc34)[nH]c(=O)c2c1C`, the TGI falls from 34 µM to 5.64 µM (6-fold).

Work on `Nc1nc(Br)nc2c1ncn2C1CC(O)C(CO)O1` (stereo not drawn) yielded a TGI greater than 100 µM.

System: NCI-H226 lung
Assay: growth of human tumour cells (NCI), 48 h

For `Fc1ccc(Nc2cc(-n3nnc4ccccc43)nc3ccccc23)cc1`, the GI50 was 19 µM.

With `Fc1ccc(Nc2cc(-n3nnc4ccccc43)nc3ccccc23)cc1` the TGI was greater than 69 µM.
